# Measurements as given in ChEMBL document CHEMBL3991601, “The target landscape of clinical kinase drugs” (Science, 2017).
# Calls of active or inactive are those of the source. Rule as the data show it, for most assays here: actives have a measured Kd and inactives only a lower limit.
# Biological target: Ribosomal protein S6 kinase alpha-6 (Homo sapiens, UniProt Q9UK32)
# Also: in the data inactive means no Kd found up to 30 µM.
# Chain of Ribosomal protein S6 kinase alpha-6 (Q9UK32 whole entry): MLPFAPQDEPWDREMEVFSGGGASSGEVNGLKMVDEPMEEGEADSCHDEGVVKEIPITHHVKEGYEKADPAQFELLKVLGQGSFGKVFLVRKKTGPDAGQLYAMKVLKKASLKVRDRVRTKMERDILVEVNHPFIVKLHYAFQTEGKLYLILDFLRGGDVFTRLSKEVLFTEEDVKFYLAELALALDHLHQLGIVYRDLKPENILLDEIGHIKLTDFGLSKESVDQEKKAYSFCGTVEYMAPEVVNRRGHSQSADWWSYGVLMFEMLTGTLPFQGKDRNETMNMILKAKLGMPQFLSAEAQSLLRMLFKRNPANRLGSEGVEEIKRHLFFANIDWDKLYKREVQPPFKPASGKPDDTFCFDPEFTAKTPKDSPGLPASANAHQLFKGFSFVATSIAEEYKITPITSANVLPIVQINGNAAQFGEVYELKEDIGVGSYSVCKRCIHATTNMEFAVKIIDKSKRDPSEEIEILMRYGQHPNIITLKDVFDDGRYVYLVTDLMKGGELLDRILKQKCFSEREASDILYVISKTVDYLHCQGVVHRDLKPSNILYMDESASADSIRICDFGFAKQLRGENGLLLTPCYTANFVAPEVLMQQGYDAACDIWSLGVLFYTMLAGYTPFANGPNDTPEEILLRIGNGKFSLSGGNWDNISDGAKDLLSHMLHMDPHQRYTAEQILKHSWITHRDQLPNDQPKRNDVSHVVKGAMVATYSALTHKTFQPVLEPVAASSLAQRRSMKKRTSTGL
row,Structure (SMILES),Kd
1,Cc1cc2c(F)c(Oc3ncnn4cc(OC[C@@H](C)OC(=O)[C@H](C)N)c(C)c34)ccc2[nH]1 [BRIVANIB ALANINATE],> 30 µM (inactive)
2,CNC(=O)c1ccc(-c2cnc3ncc(Cc4ccc5ncccc5c4)n3n2)cc1F [CAPMATINIB],> 30 µM (inactive)
3,O=C(c1ccc(F)c(F)c1Nc1ccc(I)cc1F)N1CC(O)([C@@H]2CCCCN2)C1 [COBIMETINIB],> 30 µM (inactive)
4,CCc1cnn2c(NCc3ccc[n+]([O-])c3)cc(N3CCCC[C@H]3CCO)nc12 [DINACICLIB],> 30 µM (inactive)

# Biological target: Casein kinase I isoform gamma-1 (Homo sapiens, UniProt Q9HCP0)
# Sequence (Q9HCP0 whole entry, canonical isoform): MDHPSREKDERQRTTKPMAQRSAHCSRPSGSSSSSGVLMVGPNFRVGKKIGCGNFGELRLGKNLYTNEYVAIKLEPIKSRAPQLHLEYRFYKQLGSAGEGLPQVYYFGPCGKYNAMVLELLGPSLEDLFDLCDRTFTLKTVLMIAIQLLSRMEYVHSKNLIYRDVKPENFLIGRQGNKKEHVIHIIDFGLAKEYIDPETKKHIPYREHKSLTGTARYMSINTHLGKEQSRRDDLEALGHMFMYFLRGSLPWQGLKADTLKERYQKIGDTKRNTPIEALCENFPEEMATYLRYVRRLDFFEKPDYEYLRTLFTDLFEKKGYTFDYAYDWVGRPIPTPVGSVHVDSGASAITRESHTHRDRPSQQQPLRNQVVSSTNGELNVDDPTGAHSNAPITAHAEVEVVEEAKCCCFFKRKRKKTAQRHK
row,Structure (SMILES),Kd
1,Cc1cc2c(F)c(Oc3ncnn4cc(OC[C@@H](C)OC(=O)[C@H](C)N)c(C)c34)ccc2[nH]1 [BRIVANIB ALANINATE],> 30 µM (inactive)
2,CNC(=O)c1ccc(-c2cnc3ncc(Cc4ccc5ncccc5c4)n3n2)cc1F [CAPMATINIB],> 30 µM (inactive)
3,O=C(c1ccc(F)c(F)c1Nc1ccc(I)cc1F)N1CC(O)([C@@H]2CCCCN2)C1 [COBIMETINIB],> 30 µM (inactive)
4,CCc1cnn2c(NCc3ccc[n+]([O-])c3)cc(N3CCCC[C@H]3CCO)nc12 [DINACICLIB],> 30 µM (inactive)

# Biological target: T1, dCTP pyrophosphatase 1 (Homo sapiens, UniProt Q9H773)
# T1 sequence (Q9H773 whole entry): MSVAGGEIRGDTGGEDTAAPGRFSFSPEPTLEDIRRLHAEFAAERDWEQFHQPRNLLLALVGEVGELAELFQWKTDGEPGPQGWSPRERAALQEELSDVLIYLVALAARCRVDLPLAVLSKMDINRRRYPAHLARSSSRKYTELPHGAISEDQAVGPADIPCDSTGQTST
row,Structure (SMILES),Kd
1,Cc1cc2c(F)c(Oc3ncnn4cc(OC[C@@H](C)OC(=O)[C@H](C)N)c(C)c34)ccc2[nH]1 [BRIVANIB ALANINATE],> 30 µM (inactive)
2,CNC(=O)c1ccc(-c2cnc3ncc(Cc4ccc5ncccc5c4)n3n2)cc1F [CAPMATINIB],> 30 µM (inactive)
3,O=C(c1ccc(F)c(F)c1Nc1ccc(I)cc1F)N1CC(O)([C@@H]2CCCCN2)C1 [COBIMETINIB],> 30 µM (inactive)
4,CCc1cnn2c(NCc3ccc[n+]([O-])c3)cc(N3CCCC[C@H]3CCO)nc12 [DINACICLIB],> 30 µM (inactive)

# Biological target: Casein kinase I isoform alpha (Homo sapiens, UniProt P48729)
# Sequence (P48729 whole entry, canonical isoform): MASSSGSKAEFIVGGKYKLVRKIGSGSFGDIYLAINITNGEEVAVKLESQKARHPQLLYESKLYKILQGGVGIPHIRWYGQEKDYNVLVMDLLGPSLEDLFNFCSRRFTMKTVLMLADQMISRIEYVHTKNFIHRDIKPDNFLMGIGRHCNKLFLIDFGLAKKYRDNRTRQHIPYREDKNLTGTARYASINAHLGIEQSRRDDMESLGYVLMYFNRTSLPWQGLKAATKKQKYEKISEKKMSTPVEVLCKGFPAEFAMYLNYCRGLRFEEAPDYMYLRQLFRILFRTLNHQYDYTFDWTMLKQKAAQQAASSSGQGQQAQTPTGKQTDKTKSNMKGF
row,Structure (SMILES),Kd
1,Cc1cc2c(F)c(Oc3ncnn4cc(OC[C@@H](C)OC(=O)[C@H](C)N)c(C)c34)ccc2[nH]1 [BRIVANIB ALANINATE],> 30 µM (inactive)
2,CNC(=O)c1ccc(-c2cnc3ncc(Cc4ccc5ncccc5c4)n3n2)cc1F [CAPMATINIB],> 30 µM (inactive)
3,O=C(c1ccc(F)c(F)c1Nc1ccc(I)cc1F)N1CC(O)([C@@H]2CCCCN2)C1 [COBIMETINIB],> 30 µM (inactive)

# Biological target: Calcium/calmodulin-dependent protein kinase type II subunit delta (Homo sapiens, UniProt Q13557)
# Sequence (Q13557 whole entry): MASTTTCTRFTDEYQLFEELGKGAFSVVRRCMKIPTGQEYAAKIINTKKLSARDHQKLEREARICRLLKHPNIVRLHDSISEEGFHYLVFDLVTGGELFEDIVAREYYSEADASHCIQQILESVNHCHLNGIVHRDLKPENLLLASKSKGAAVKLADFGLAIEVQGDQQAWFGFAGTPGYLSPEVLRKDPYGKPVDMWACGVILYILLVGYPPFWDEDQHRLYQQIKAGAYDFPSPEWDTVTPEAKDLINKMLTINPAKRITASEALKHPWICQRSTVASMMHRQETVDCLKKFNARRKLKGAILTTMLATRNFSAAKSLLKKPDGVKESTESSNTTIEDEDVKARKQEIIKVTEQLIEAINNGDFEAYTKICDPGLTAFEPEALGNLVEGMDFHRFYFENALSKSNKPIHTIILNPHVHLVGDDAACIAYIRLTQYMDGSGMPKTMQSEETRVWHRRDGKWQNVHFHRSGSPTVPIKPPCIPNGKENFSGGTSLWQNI
row,Structure (SMILES),Kd
1,Cc1cc2c(F)c(Oc3ncnn4cc(OC[C@@H](C)OC(=O)[C@H](C)N)c(C)c34)ccc2[nH]1 [BRIVANIB ALANINATE],> 30 µM (inactive)
2,CNC(=O)c1ccc(-c2cnc3ncc(Cc4ccc5ncccc5c4)n3n2)cc1F [CAPMATINIB],> 30 µM (inactive)
3,O=C(c1ccc(F)c(F)c1Nc1ccc(I)cc1F)N1CC(O)([C@@H]2CCCCN2)C1 [COBIMETINIB],> 30 µM (inactive)
4,CCc1cnn2c(NCc3ccc[n+]([O-])c3)cc(N3CCCC[C@H]3CCO)nc12 [DINACICLIB],> 30 µM (inactive)

# Biological target: Glycogen synthase kinase-3 alpha (Homo sapiens, UniProt P49840)
# Sequence (P49840 whole entry): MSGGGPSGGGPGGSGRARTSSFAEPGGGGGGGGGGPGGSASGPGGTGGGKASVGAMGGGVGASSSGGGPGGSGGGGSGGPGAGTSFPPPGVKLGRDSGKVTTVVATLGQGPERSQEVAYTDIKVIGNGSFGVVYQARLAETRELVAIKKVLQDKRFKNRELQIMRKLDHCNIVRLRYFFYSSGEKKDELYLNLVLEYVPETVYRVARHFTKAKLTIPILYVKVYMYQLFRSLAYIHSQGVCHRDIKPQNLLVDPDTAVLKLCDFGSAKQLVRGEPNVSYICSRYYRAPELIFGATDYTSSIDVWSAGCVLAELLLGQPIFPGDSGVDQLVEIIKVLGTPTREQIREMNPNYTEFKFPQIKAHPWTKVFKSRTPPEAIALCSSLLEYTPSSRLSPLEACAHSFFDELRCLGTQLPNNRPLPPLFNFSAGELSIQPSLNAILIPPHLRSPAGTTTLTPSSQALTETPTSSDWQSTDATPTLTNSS
row,Structure (SMILES),Kd
1,Cc1cc2c(F)c(Oc3ncnn4cc(OC[C@@H](C)OC(=O)[C@H](C)N)c(C)c34)ccc2[nH]1 [BRIVANIB ALANINATE],> 30 µM (inactive)
2,CNC(=O)c1ccc(-c2cnc3ncc(Cc4ccc5ncccc5c4)n3n2)cc1F [CAPMATINIB],> 30 µM (inactive)
3,O=C(c1ccc(F)c(F)c1Nc1ccc(I)cc1F)N1CC(O)([C@@H]2CCCCN2)C1 [COBIMETINIB],> 30 µM (inactive)
4,CCc1cnn2c(NCc3ccc[n+]([O-])c3)cc(N3CCCC[C@H]3CCO)nc12 [DINACICLIB],1.47 µM (active)

# Biological target: T2, Discoidin domain-containing receptor 2 (Homo sapiens, UniProt Q16832)
# T2 sequence (Q16832 whole entry): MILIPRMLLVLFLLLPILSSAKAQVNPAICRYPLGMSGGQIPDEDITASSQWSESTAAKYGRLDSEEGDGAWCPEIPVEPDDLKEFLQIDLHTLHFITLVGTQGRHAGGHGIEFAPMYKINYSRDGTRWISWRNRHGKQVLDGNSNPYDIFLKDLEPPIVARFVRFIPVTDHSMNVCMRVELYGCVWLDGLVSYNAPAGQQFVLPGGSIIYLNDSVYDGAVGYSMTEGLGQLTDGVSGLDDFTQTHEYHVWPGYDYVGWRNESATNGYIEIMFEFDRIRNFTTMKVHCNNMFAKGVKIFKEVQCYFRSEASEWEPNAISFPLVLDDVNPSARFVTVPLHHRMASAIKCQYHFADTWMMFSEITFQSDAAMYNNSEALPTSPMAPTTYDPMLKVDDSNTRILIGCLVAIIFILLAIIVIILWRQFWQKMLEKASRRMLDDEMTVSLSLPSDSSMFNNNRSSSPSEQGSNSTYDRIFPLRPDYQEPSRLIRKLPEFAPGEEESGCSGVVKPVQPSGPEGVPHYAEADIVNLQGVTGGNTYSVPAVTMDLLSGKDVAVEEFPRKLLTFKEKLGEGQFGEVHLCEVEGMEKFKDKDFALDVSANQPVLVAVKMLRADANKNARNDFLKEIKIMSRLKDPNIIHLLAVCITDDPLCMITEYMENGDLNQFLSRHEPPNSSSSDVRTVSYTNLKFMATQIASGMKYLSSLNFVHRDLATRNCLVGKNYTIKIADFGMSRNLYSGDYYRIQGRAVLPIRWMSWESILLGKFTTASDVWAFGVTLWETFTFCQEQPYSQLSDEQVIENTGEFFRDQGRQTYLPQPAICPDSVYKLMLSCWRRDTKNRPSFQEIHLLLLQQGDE
row,Structure (SMILES),Kd
1,Cc1cc2c(F)c(Oc3ncnn4cc(OC[C@@H](C)OC(=O)[C@H](C)N)c(C)c34)ccc2[nH]1 [BRIVANIB ALANINATE],> 30 µM (inactive)
2,CNC(=O)c1ccc(-c2cnc3ncc(Cc4ccc5ncccc5c4)n3n2)cc1F [CAPMATINIB],> 30 µM (inactive)
3,O=C(c1ccc(F)c(F)c1Nc1ccc(I)cc1F)N1CC(O)([C@@H]2CCCCN2)C1 [COBIMETINIB],> 30 µM (inactive)
4,CCc1cnn2c(NCc3ccc[n+]([O-])c3)cc(N3CCCC[C@H]3CCO)nc12 [DINACICLIB],> 30 µM (inactive)

# Biological target: T3, Serine/threonine-protein kinase TAO3 (Homo sapiens, UniProt Q9H2K8)
# T3 sequence (Q9H2K8 whole entry): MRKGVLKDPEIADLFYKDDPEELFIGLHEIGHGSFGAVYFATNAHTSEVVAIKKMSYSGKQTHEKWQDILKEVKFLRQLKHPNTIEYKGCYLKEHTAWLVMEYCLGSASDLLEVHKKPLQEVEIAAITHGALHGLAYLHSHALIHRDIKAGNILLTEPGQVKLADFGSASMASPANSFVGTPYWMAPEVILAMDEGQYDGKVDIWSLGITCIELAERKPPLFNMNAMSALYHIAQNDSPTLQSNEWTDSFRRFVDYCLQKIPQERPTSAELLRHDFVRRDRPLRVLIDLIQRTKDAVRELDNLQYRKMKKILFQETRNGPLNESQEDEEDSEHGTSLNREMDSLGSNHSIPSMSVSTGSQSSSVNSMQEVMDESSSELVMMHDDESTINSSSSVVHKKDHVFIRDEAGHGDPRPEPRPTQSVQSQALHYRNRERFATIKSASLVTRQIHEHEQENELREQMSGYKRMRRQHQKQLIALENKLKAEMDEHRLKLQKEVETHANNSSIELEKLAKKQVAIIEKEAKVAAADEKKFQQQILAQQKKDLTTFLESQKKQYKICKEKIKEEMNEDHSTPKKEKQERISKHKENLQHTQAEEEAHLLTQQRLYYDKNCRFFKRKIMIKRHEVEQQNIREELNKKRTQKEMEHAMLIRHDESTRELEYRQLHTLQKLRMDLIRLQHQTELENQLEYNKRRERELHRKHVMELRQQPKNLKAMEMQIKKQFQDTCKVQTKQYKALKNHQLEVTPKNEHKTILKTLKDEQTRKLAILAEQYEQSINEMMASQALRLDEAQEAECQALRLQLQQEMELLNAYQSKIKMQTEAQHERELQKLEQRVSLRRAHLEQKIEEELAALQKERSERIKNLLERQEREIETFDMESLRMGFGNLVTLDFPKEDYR
row,Structure (SMILES),Kd
1,Cc1cc2c(F)c(Oc3ncnn4cc(OC[C@@H](C)OC(=O)[C@H](C)N)c(C)c34)ccc2[nH]1 [BRIVANIB ALANINATE],> 30 µM (inactive)
2,CNC(=O)c1ccc(-c2cnc3ncc(Cc4ccc5ncccc5c4)n3n2)cc1F [CAPMATINIB],> 30 µM (inactive)
3,O=C(c1ccc(F)c(F)c1Nc1ccc(I)cc1F)N1CC(O)([C@@H]2CCCCN2)C1 [COBIMETINIB],> 30 µM (inactive)
4,CCc1cnn2c(NCc3ccc[n+]([O-])c3)cc(N3CCCC[C@H]3CCO)nc12 [DINACICLIB],2.44 µM (active)

# Biological target: T4, Cysteine--tRNA ligase, cytoplasmic (Homo sapiens, UniProt P49589)
# T4 sequence (P49589 whole entry): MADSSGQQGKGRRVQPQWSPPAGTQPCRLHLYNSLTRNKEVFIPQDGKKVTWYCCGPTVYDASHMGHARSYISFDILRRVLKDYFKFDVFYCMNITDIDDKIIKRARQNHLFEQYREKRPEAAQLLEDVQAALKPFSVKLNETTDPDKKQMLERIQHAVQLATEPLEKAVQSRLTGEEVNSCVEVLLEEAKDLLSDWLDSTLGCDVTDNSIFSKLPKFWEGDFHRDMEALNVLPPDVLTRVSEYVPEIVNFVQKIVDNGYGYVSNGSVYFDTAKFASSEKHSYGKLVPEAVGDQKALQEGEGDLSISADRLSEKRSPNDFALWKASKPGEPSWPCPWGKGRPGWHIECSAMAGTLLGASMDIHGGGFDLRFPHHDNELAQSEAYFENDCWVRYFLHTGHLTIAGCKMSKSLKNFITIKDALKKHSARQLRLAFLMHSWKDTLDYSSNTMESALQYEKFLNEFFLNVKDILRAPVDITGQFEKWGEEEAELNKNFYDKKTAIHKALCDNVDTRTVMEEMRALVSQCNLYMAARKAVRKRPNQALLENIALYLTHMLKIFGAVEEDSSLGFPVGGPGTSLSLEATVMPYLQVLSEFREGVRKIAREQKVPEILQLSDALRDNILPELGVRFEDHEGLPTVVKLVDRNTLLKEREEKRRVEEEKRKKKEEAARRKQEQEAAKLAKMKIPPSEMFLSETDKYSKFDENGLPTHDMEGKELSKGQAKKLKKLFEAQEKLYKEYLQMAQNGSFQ
row,Structure (SMILES),Kd
1,Cc1cc2c(F)c(Oc3ncnn4cc(OC[C@@H](C)OC(=O)[C@H](C)N)c(C)c34)ccc2[nH]1 [BRIVANIB ALANINATE],> 30 µM (inactive)
2,CNC(=O)c1ccc(-c2cnc3ncc(Cc4ccc5ncccc5c4)n3n2)cc1F [CAPMATINIB],> 30 µM (inactive)
3,O=C(c1ccc(F)c(F)c1Nc1ccc(I)cc1F)N1CC(O)([C@@H]2CCCCN2)C1 [COBIMETINIB],> 30 µM (inactive)
4,CCc1cnn2c(NCc3ccc[n+]([O-])c3)cc(N3CCCC[C@H]3CCO)nc12 [DINACICLIB],> 30 µM (inactive)
